pIC50: −log10 of the molar value.
Tests used:
Format in all cases: cell-based
[1] = target: EP2 subtype of the human PGE2 receptor (Homo sapiens, UniProt P43116); experiment: cAMP antagonism test on the human EP2 receptor (HTRF cAMP detection); conditions: hEP2 receptor, read-out: Antagonism hEP2 IC50
How it was run: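 Cells expressing human EP2 preincubated 20 min at RT with compound (0.8 nM–16.5 μM), then stimulated 60 min with PGE2 (3× solution 1.5 nM) in PBS-IBMX. After 20 min lysis, cAMP measured by competitive HTRF with cAMP-d2 and Eu cryptate anti-cAMP antibody (665/620 nm ratio).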

human PGD receptor = target: T1, human PGD receptor (Homo sapiens, UniProt Q13258); experiment: cAMP antagonism test on the human prostaglandin D receptor (HTRF cAMP detection); conditions: selectivity towards hDP, IC50 measured by cAMP antagonism test
T1 sequence (Q13258 1-359): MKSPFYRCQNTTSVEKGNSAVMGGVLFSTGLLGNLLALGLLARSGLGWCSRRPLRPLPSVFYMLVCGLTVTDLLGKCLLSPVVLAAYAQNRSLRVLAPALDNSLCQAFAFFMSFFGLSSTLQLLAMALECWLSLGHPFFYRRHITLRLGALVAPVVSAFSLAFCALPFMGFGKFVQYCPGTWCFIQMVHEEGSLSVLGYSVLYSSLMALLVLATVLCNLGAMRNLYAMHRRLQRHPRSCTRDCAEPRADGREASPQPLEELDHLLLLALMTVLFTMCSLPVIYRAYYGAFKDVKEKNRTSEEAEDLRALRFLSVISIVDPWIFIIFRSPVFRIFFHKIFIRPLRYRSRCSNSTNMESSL
How it was run: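 Cells pre-mixed with cAMP-d2 were preincubated with compound (0.8 nM–16.5 μM) for 20 min at RT, then stimulated with 3× PGD2 solution (6 nM, in PBS-IBMX) for 30 min at RT. After lysis (20 min), HTRF read at 665/620 nm; antagonism seen as rise in FRET ratio.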

[2] = target: EP4 subtype of the human PGE2 receptor (Homo sapiens, UniProt P35408); experiment: cAMP antagonism test on the human EP4 receptor (HTRF cAMP detection); conditions: selectivity towards hEP4, IC50 measured by cAMP antagonism test
Chain of EP4 subtype of the human PGE2 receptor (P35408 whole entry): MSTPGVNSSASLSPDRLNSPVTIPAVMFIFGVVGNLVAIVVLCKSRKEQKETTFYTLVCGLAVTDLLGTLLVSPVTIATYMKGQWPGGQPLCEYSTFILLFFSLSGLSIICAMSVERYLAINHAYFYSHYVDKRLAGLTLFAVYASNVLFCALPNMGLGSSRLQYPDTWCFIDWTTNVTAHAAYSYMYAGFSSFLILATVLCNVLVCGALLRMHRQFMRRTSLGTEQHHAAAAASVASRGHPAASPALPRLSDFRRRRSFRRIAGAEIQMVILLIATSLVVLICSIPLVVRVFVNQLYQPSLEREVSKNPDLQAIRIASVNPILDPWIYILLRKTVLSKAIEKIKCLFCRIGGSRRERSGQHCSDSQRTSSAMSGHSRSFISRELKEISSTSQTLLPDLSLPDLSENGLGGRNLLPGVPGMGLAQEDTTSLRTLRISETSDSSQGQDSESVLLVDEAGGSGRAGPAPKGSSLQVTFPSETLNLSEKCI
How it was run: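 Cells expressing human EP4 preincubated 20 min at RT with compound (0.8 nM–16.5 μM), then stimulated with PGE2 (0.3 nM in 3× solution, with IBMX) 60 min at RT. After lysis, cAMP measured by HTRF competition (665/620 nm ratio); antagonism seen as rise in FRET signal.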

Chain of EP2 subtype of the human PGE2 receptor (P43116 whole entry): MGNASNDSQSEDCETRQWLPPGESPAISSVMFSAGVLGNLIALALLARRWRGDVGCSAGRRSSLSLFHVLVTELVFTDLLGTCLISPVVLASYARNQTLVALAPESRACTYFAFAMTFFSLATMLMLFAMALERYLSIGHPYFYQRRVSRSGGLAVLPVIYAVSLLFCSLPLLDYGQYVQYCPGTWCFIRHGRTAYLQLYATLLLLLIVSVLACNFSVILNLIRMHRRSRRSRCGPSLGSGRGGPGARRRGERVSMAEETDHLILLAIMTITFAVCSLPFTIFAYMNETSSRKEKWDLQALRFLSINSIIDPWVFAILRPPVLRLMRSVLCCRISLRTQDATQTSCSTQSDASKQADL

Row | SMILES | pIC50 [1] | Selectivity hEP2/hDP (human PGD receptor) | Selectivity hEP2/hEP4 [2]
1 | COCCNC(=O)c1ccc2nn(CC3CCN(C(=O)c4ccc(-c5cc(F)cc(F)c5)c(C)c4)CC3)cc2c1C [Example 391, 2-({1-[(3′,5′-difluoro-2-methylbiphenyl-4-yl)carbonyl]piperidin-4-yl}methyl)-N-(2-methoxyethyl)-4-methyl-2H-indazol-5-carboxamide] | 8.22 | xxx (xxx > 100) | xxx (xxx > 100)
2 | Cc1c(C(=O)NCCOC(F)(F)F)ccc2nn(CC3CN(C(=O)c4ccc(Cl)cc4)C3)cc12 [Example 152, 2-{[1-(4-chlorobenzoyl)azetidin-3-yl]methyl}-4-methyl-N-[2-(trifluoromethoxy)ethyl]-2H-indazol-5-carboxamide] | 7.48 | xxx (xxx > 100) | xxx (xxx > 100)
3 | COCCNC(=O)c1ccc2nn(CC3CCN(C(=O)c4ccc(OC(F)(F)F)c(F)c4)CC3)cc2c1OC [Example 272, 2-({1-[3-fluoro-4-(trifluoromethoxy)benzoyl]piperidin-4-yl}methyl)-4-methoxy-N-(2-methoxyethyl)-2H-indazol-5-carboxamide] | 7.63 | xxx (xxx > 100) | xxx (xxx > 100)
4 | COCCNC(=O)c1ccc2nn(CC3CCN(C(=O)c4ccc(-c5ccc(F)cc5OC)cc4)CC3)cc2c1C [Example 380, 2-({1-[(4′-fluoro-2′-methoxybiphenyl-4-yl)carbonyl]piperidin-4-yl}methyl)-N-(2-methoxyethyl)-4-methyl-2H-indazol-5-carboxamide] | 8.27 | xxx (xxx > 100) | xxx (xxx > 100)
5 | Cc1c(C(=O)NCC(F)(F)F)ccc2nn(CC3CN(C(=O)c4ccc(Cl)cc4)C3)cc12 [Example 129, 2-{[1-(4-chlorobenzoyl)azetidin-3-yl]methyl}-4-methyl-N-(2,2,2-trifluoroethyl)-2H-indazol-5-carboxamide] | 6.51 | xx (xx: 10-100) | xx (xx: 10-100)
6 | COCCNC(=O)c1ccc2nn(CC3CCN(C(=O)c4ccc(-n5cncn5)cc4)CC3)cc2c1C [Example 39, N-(2-methoxyethyl)-4-methyl-2-({1-[4-(1H-1,2,4-triazol-1-yl)benzoyl]piperidin-4-yl}methyl)-2H-indazol-5-carboxamide] | 6.95 | xxx (xxx > 100) | xxx (xxx > 100)
7 | COCCNC(=O)c1ccc2nn(CC3CCN(C(=O)c4ccc(-c5ccc(OC)cc5F)cc4F)CC3)cc2c1C [Example 364, 2-({1-[(2′,3-difluoro-4′-methoxybiphenyl-4-yl)carbonyl]piperidin-4-yl}methyl)-N-(2-methoxyethyl)-4-methyl-2H-indazol-5-carboxamide] | 8.18 | xxx (xxx > 100) | xxx (xxx > 100)
8 | COc1c(C(=O)NCCN2CCOCC2)ccc2nn(CC3CN(C(=O)c4ccc(Cl)cc4)C3)cc12 [Example 258, 2-{[1-(4-chlorobenzoyl)azetidin-3-yl]methyl}-4-methoxy-N-(2-morpholinoethyl)-2H-indazol-5-carboxamide] | 6.96 | xxx (xxx > 100) | xxx (xxx > 100)
9 | COCCNC(=O)c1ccc2nn(CC3CCN(C(=O)c4ccc(-c5cncc(Cl)c5)cc4)CC3)cc2c1C [Example 385, 2-({1-[4-(5-chloropyridin-3-yl)benzoyl]piperidin-4-yl}methyl)-N-(2-methoxy-ethyl)-4-methyl-2H-indazol-5-carboxamide] | 7.88 | xxx (xxx > 100) | xxx (xxx > 100)
10 | COCCNC(=O)c1ccc2nn(CC3CCN(C(=O)c4ccc(-c5ccc(C)nc5)cc4)CC3)cc2c1C [Example 377, N-(2-methoxyethyl)-4-methyl-2-({1-[4-(6-methylpyridin-3-yl)benzoyl]piperidin-4-yl}methyl)-2H-indazol-5-carboxamide] | 7.56 | xxx (xxx > 100) | xxx (xxx > 100)
11 | Cc1cc2nn(CC3CN(C(=O)c4ccc(OC(F)(F)F)cc4)C3)cc2cc1C(=O)NCCSC(F)(F)F [Example 194, 6-methyl-2-({1-[4-(trifluoromethoxy)benzoyl]azetidin-3-yl}methyl)-N-{2-[(trifluoromethyl)sulphanyl]ethyl}-2H-indazol-5-carboxamide] | 7.39 | xxx (xxx > 100) | xxx (xxx > 100)
12 | Cc1c(C(=O)NCCOCC2CC2)ccc2nn(CC3CCN(C(=O)c4ccc(Oc5ccc(F)cc5)cc4)CC3)cc12 [Example 86, N-[2-(cyclopropyl-methoxy)ethyl]-2-({1-[4-(4-fluorophenoxy)-benzoyl]piperidin-4-yl}methyl)-4-methyl-2H-indazol-5-carboxamide] | 7.81 | xxx (xxx > 100) | xxx (xxx > 100)
13 | Cc1c(C(=O)NCC(C)C)ccc2nn(CC3CCN(C(=O)c4ccc(Oc5ccc(C(F)(F)F)cc5)cc4)CC3)cc12 [Example 404, N-isobutyl-4-methyl-2-[(1-{4-[4-(trifluoromethyl)phenoxy]benzoyl}piperidin-4-yl)methyl]-2H-indazol-5-carboxamide] | 7.69 | xxx (xxx > 100) | xxx (xxx > 100)
14 | O=C(NCCOCC1CC1)c1ccc2nn(CC3CCN(C(=O)c4ccc(-c5ccc(F)cc5)cc4)CC3)cc2c1OC(F)F [Example 231, N-[2-(cyclopropylmethoxy)ethyl]-4-(difluoromethoxy)-2-({1-[(4′-fluorobiphenyl-4-yl)carbonyl]piperidin-4-yl}methyl)-2H-indazol-5-carboxamide] | 7.88 | xxx (xxx > 100) | xxx (xxx > 100)
15 | COCCNC(=O)c1ccc2nn(CC3CCN(C(=O)c4ccc(-c5ccc(F)cc5)cc4)CC3)cc2c1OC(F)F [Example 227, 4-(difluoromethoxy)-2-({1-[(4′-fluorobiphenyl-4-yl)carbonyl]piperidin-4-yl}methyl)-N-(2-methoxyethyl)-2H-indazol-5-carboxamide] | 8.00 | xxx (xxx > 100) | xxx (xxx > 100)
16 | Cc1c(C(=O)NCC2CCCCO2)ccc2nn(CC3CCN(C(=O)c4ccc(Oc5ccc(C(F)(F)F)cc5)cc4)CC3)cc12 (single isomer, unassigned) [Example 416, (R or S)-4-methyl-N-(3,4,5,6-tetrahydro-2H-pyran-2-ylmethyl)-2-[(1-{4-[4-(trifluoromethyl)phenoxy]benzoyl}piperidin-4-yl)methyl]-2H-indazol-5-carboxamide] | 7.97 | xxx (xxx > 100) | xxx (xxx > 100)
17 | COCCNC(=O)c1ccc2nn(CC3CCN(C(=O)c4ccc(C(C)(C)C)cc4)CC3)cc2c1C [Example 333, 2-{[1-(4-tert-butylbenzoyl)piperidin-4-yl]methyl}-N-(2-methoxyethyl)-4-methyl-2H-indazol-5-carboxamide] | 8.19 | xxx (xxx > 100) | xxx (xxx > 100)
18 | COCCNC(=O)c1ccc2nn(CC3CCN(C(=O)c4ccc(SC(F)(F)F)cc4)CC3)cc2c1OC [Example 269, 4-methoxy-N-(2-methoxyethyl)-2-[(1-{4-[(trifluoromethyl)sulphanyl]benzoyl}-piperidin-4-yl)methyl]-2H-indazol-5-carboxamide] | 8.12 | xxx (xxx > 100) | xxx (xxx > 100)
19 | COCCNC(=O)c1ccc2nn(CC3CCN(C(=O)c4ccc5ccc(OC)cc5c4)CC3)cc2c1C [Example 344, N-(2-methoxyethyl)-2-{[1-(7-methoxy-2-naphthoyl)piperidin-4-yl]methyl}-4-methyl-2H-indazol-5-carboxamide] | 7.99 | xxx (xxx > 100) | xxx (xxx > 100)
20 | COCCNC(=O)c1ccc2nn(CC3CCN(C(=O)c4ccc(Oc5ccc(C#N)cn5)cc4)CC3)cc2c1C [Example 356, 2-[(1-{4-[(5-cyanopyridin-2-yl)oxy]benzoyl}piperidin-4-yl)methyl]-N-(2-methoxyethyl)-4-methyl-2H-indazol-5-carboxamide] | 7.20 | xxx (xxx > 100) | xxx (xxx > 100)

— patent US9062041B2 (Bayer Intellectual Property GmbH, priority 2011, dated 2015)
